In patent US20220289766A1 (INFLAZOME LIMITED, priority 2019, published 2022) one finds IC50 data, which are given here for one molecule.

Assay [1] addresses T1, NLRP3 (Homo sapiens, UniProt Q96P20). In words: THP-1 cells pyroptosis assay. Format: cell-based. The arrangement: Seed THP-1 cells (25,000 cells/well) containing 1.0 μg/ml LPS in 40 μl of RPMI medium; host or cells: THP-1 cells. The conditions noted are these: LPS 1 μg/ml, compound 3 hrs, nigericin 5 μM 1 hr, resazurin readout. An outline of the steps:
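LPS-primed (1 μg/ml) THP-1 cells, 25,000/well in serum-free RPMI, given compound (8-point half-log, top 10 μM) 3 h at 37° C, then nigericin 5 μM for 1 h. Viability read by resazurin (100 μM, 1-2 h) fluorescence, Ex 560/Em 590; IC50 from 4-parameter fit.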

Assay [2] addresses T1, NLRP3. As to the kind of experiment: Human whole blood IL-1β release assay. The arrangement: Plate out 80 μl of whole blood containing 1 μg/ml of LPS in 96-well, clear bottom cell culture plate; from tissue; host or cells: human whole blood from healthy donors. It counts as cell-based. The conditions noted are these: LPS 1 μg/ml, compound 3 hrs, nigericin 10 μM 1 hr, IL-1β by AlphaLisa, read-out: HWB IC50. The method in brief: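 Donor human whole blood (Li-heparin) primed with 1 μg/ml LPS plus compound (8-point half-log series, 10 μM top) for 3 h at 37 °C, then 10 μM nigericin for 1 h. Supernatant IL-1β quantified by AlphaLisa; IC50 from 4-parameter variable-slope fit.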
On the technique in general: Bead proximity is the source of the signal in Alpha formats.

The structures appear in SMILES notation.

T1 sequence (Q96P20 whole entry): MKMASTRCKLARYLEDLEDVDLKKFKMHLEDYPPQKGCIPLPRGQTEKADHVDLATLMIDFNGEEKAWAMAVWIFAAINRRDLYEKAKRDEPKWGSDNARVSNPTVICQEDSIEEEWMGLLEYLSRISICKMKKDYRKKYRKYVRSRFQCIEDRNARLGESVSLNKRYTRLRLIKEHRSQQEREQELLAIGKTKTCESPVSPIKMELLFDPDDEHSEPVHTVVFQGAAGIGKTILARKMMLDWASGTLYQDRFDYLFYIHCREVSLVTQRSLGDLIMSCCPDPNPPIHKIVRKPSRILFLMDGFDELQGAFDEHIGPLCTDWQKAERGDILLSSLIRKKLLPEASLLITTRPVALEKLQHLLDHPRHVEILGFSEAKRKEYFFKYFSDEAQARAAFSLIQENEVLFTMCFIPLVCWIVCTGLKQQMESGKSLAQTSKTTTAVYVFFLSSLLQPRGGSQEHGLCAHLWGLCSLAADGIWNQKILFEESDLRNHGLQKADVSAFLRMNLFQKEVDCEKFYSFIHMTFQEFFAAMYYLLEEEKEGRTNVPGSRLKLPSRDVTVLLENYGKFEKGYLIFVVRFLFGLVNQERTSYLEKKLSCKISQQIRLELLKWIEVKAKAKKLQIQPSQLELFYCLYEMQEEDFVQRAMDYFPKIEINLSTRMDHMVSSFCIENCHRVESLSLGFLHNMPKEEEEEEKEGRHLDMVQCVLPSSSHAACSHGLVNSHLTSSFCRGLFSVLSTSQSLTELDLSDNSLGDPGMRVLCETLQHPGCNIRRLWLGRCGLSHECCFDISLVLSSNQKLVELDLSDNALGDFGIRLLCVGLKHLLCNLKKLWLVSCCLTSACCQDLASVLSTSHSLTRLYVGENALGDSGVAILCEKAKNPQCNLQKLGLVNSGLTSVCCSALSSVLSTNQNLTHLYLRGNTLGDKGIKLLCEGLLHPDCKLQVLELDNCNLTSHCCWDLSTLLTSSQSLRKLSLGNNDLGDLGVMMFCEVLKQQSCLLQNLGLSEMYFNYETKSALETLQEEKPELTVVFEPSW

On to `O=C1Nc2c(ccc3c2CCC3)-c2ccnc(c2)OC2CCC(C2)Cn2ccc(n2)S(=O)(=O)N1` (centres unmarked) [Example 46, 24-oxa-14λ^6-thia-11,13,18,26,31-pentaazahexacyclo-[23.3.1.1^15,18.1^20,23.0^2,10.0^5,9]hentriaconta-1(28),2,4,9,15(31),16,25(29),26-octaene-12,14,14-trione], for which the IC50 against NLRP3 [1] and on NLRP3 [2] was 1 to 5 µM each time.
